The values that follow come from patent US5091547A, “Phenylacetic acid derivative and process for making same” (priority 1989, dated 1992).

Where a name gives a salt, the structure may show the parent alone.

Series [1] has as its system ulcers induced by absolute ethanol. Kind of series: Protective activity, ulcers induced by absolute ethanol. Type of series: in vivo, rats. The text has this: As explained previously, the compound of formula (I), which shall henceforth be referred to herein as LV-216, combines the advantage of anti-inflammatory and protective action.
For series [2], the system named is ulcerous lesions in the stomach and intestine. The series is described as follows: Comparative ulcerogenic action, macroscopic lesion indices (Adami's criterion). Type of series: in vivo, Female Wistar rats. The method, then:
Group I: control (excipient) (n=8)
Group II: sodium salt 10 mg/kg (n=8)
Group IV: sodium salt 10 mg/kg+zinc sulphate 2.5 mg/kg (n=8) (equivalent doses).
The products were administered orally every day for four consecutive days. The animals were given no food during the 24 hours prior to the last dose.

The conditions of series [3]: acid as such; cited from earlier work.

In the case of `O=C(O)Cc1ccccc1Nc1c(Cl)cccc1Cl` [sodium salt, sodium salt of 2-(2,6-dichloroaniline)-phenylacetic acid], the “mm lesion (lesion index)” value in series [1] (LV-216 11 mg/kg, sodium salt at equimolecular dose, control 86.3 ± 9.4) is reported as 70.8 ± 8.2 mm. Also, in series [1] (versus control, LV-216 11 mg/kg, sodium salt at equimolecular dose), the “% inhibition of ulcers” value is 17.9%. For the same molecule, the “Macroscopic lesion index (x ± e)” value in series [2] (oral, daily for four consecutive days, SS 10 mg/kg, LV-216 11 mg/kg, SS 10 mg/kg + zinc sulphate 2.5 mg/kg, n=8, control 0.4 ± 0.2) is listed as 4.0 ± 0.4. In series [2] (versus control), the “t vs CONTROL (lesion index)” value was “*** (p < 0.001)” and the “ulcerous index versus control (in words)” value was “statistically significant versus the control groups”.

Turning to “zinc compound of 2-(2,6-dichloroaniline)-phenylacetic acid [LV-216]”, in series [1] (11 mg/kg, versus control), the “t test of mm lesion versus control” value is “a (p < 0.01 versus control)”. In addition, the “inhibition of ulcers induced by ethanol (protective action)” value in series [1] (rats, doses of between 5 and 15 mg/kg) is recorded as ≤ 80%. Moreover, the “gastric tolerance (in words)” value in series [2] (compared with sodium salt alone or in combination with zinc) is on record as “surprisingly high degree of gastric tolerance, greater than that shown by the sodium salt administered alone or in combination with Zinc”.

Turning to `O=C(O)Cc1ccccc1Nc1c(Cl)cccc1Cl` [2-(2,6-dichloroaniline)-phenylacetic acid], in series [1] (equimolecular dose), the “inhibition of ulcers induced by absolute ethanol (in words)” value is given as “does not inhibit the ulcers induced by absolute ethanol”. Moreover, the “Water solubility (in words, background)” value in series [3] is “practically insoluble in water”.
